Key:
[1] = in vivo; conditions: mouse, in vivo, po, mice, 7 days observation, read-out: LD50, acute oral toxicity
[2] = tested on: level of blood sugar; test: Anti-hyperglycemia activity (reduction of blood sugar level); assay type: in vivo, rat (Wistar, streptozotocin); conditions: oral, 300 mg/kg
In short: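 Streptozotocin-diabetic Wistar rats (60 mg/kg i.p., relapsed hyperglycemia after insulin) given compounds orally at 300 mg/kg in distilled water. Blood sugar measured in samples taken 3 and 6 h post-dose.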

[3] = tested on: blood pressure; test: Anti-hypertension activity (reduction of blood pressure); assay type: in vivo, rat (spontaneous hypertension); conditions: oral, 300 mg/kg
In short: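 Spontaneously hypertensive rats dosed orally at 300 mg/kg in distilled water. Blood pressure measured at 3 and 6 h. Activity taken as change from the value just before dosing.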

[4] = tested on: Sarcoma-180; test: Anti-tumour activity against Sarcoma-180; assay type: in vivo, mouse (ICR-JCL); conditions: Mus musculus, Sarcoma-180, po, 600 h, 10 times every other day, tumour weight on 25th day, read-out: Antitumour activity, inhibiting rate (I.R.)
In short: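 ICR-JCL mice were given 1×10^6 Sarcoma-180 cells axillary; from 24 hours, compounds in saline were dosed orally at 500 mg/kg/time, 10 times every other day. Tumour nodes were weighed on day 25; inhibition rate = (1-T/C)×100(%) versus untreated tumour-bearing mice.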

[5] = tested on: total cholesterol; test: Anti-hyperlipemia activity, total cholesterol in blood; assay type: in vivo, rabbit (Japanese white male); conditions: oral, 300 mg/kg once; for Reduction of cholesterol level after 3 hrs.: negative = raising
In short: (§1)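 Male Japanese white rabbits fed 1% cholesterol diet for 3 months received compound once orally at 300 mg/kg in water. Ear-vein blood: cholesterol by enzymatic method, beta-lipoprotein by colorimetry; values are change from predose at 3 or 6 h.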

[6] = tested on: beta-lipoprotein; test: Anti-hyperlipemia activity, beta-lipoprotein in blood; assay type: in vivo, rabbit (Japanese white male); conditions: oral, 300 mg/kg once
In short: as §1

[7] = tested on: carrageenin edema; test: Anti-Carrageenin edema activity; assay type: in vivo, rat; conditions: Rattus norvegicus, po, 1000 mg/kg once, read-out: I.R. against carrageenin edema
In short: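 Rats (10 per group) given compound orally once at 1000 mg/kg in distilled water, then 0.1 ml 1% carrageenin injected into right hind foot pad. Foot pad thickness measured at intervals; inhibition rate (%) = (1−T/C)×100 versus carrageenin-only animals.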

[8] = tested on: cotton pellet granuloma; test: Anti-granuloma activity (cotton pellet); assay type: in vivo, rat; conditions: Rattus norvegicus, po, 192 h, 7 days, read-out: I.R. against cotton pellet edema
In short: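 Rats (6/group) implanted dorsally with two 30±1 mg cotton pellets; compounds given orally in distilled water at 1000 mg/kg/day once daily for 7 days. Granuloma excised on day 8 and dry weight measured; value is % inhibition of granuloma proliferation.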

[9] = tested on: exudation; test: Anti-exudation activity (air pouch, croton oil); assay type: in vivo, rat; conditions: Rattus norvegicus, po, 144 h, 5 days, read-out: I.R. against exudation
In short: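 Rats, 6 per group, given subcutaneous dorsal air pouch injected with 0.5 ml sesame oil containing 1% croton oil. Compounds dosed orally in distilled water at 1000 mg/kg/day for five days; pouch exudate volume measured on day 6 and expressed as percent inhibition of exudation.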

[10] = tested on: pseudo-escaping reaction to tail pressure; test: Analgetic activity against mechanical stimulation of pressure; assay type: in vivo, mouse (ICR female); conditions: oral, 1000 mg/kg
[11] = tested on: acetic acid writhing; test: Analgetic activity against chemical stimulation of acetic acid (writhing); assay type: in vivo, mouse (ICR female); conditions: Mus musculus, po, 30 min before 0.6% acetic acid, read-out: I.R. of writhing
Text: Rate of inhibition (I.R.) (%)=(1-T/C)×100
T represents the average number of writhing of the group of mice administered with the present compound and injected with acetic acid, and C represents the average number of writhing of the group of mice only injected with acetic acid (control).

[12] = tested on: pyrexia (Saccharomyces cerevisiae); test: Anti-pyrexia activity (yeast-induced); assay type: in vivo; conditions: Rattus norvegicus, oral, read-out: Rate of inhibiting pyrexia (I.R.)
In short: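 Rats (n=6/group) received subcutaneous 20% Saccharomyces cerevisiae suspension, fasted 10 h, then dosed orally with 1000 mg/kg compound in distilled water. Rectal temperature was tracked at set intervals and the lowest value taken; inhibition rate computed against non-yeast and yeast-only control temperatures.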

| Compound | LD50 at 168 h [1] | Reduced level of blood sugar after 3 hrs. [2] | Reduced level of blood sugar after 6 hrs. [2] | Reduced level of blood pressure after 3 hrs. [3] | Reduced level of blood pressure after 6 hrs. [3] | inhibition in vivo at 500 mg/kg [4] | Reduction of cholesterol level after 3 hrs. [5] | Reduction of cholesterol level after 6 hrs. [5] | Reduction of beta-lipoprotein level after 3 hrs. [6] | Reduction of beta-lipoprotein level after 6 hrs. [6] | inhibition in vivo at 1000 mg/kg [7] | inhibition in vivo at 1000 mg/kg/day [8] | inhibition in vivo at 1000 mg/kg/day [9] | Pseudo-escapting reaction pressure [10] | Pseudo-escapting reaction time [10] | inhibition in vivo at 1000 mg/kg [11] | inhibition in vivo at 1000 mg/kg [12] |
| --- | --- | --- | --- | --- | --- | --- | --- | --- | --- | --- | --- | --- | --- | --- | --- | --- | --- |
| O=C(OC1CCCCC1)c1ccc(NC2OC[C@@H](O)[C@H](O)[C@H]2O)cc1 (stereo partly drawn) [Compound 18, cyclohexyl p-aminobenzoate-N-D-xyloside] | > 15000 mg/kg | 121 mg/dL | 165 mg/dL | 22 mm Hg | 25 mm Hg | 62% | 2 mg/dL | 62 mg/dL | 148 mg/dL | 154 mg/dL | 19.7% | 12.2% | 25% | 94 mmHg | 39 s | 33% | 62% |
| O=C(OCc1ccccc1)c1ccc(NC2(CO)OC[C@@H](O)[C@@H](O)[C@@H]2O)cc1 (stereo partly drawn) [Compound 15, benzyl p-aminobenzoate-N-D-fructoside] | 11000 mg/kg | 72 mg/dL | 85 mg/dL | 18 mm Hg | 20 mm Hg | 43% | -1 mg/dL | 45 mg/dL | 150 mg/dL | 154 mg/dL | 30.8% | 9% | 7.5% | 78 mmHg | 37 s | 19% | 26% |
| O=C(OCC1CCCCC1)c1ccc(NC2O[C@H](CO)[C@@H](O)[C@H](O)[C@H]2O)cc1 (stereo partly drawn) [Compound 24, hexahydrobenzyl p-aminobenzoate-N-D-glucoside] | 12100 mg/kg | 101 mg/dL | 145 mg/dL | 19 mm Hg | 21 mm Hg | 40% | 2 mg/dL | 32 mg/dL | 95 mg/dL | 111 mg/dL | 10.6% | 16.9% | 8.7% | 85 mmHg | 42 s | 41% | 48% |
| O=C(OCC1CCCCC1)c1ccccc1NC1O[C@H](CO)[C@@H](O[C@@H]2O[C@H](CO)[C@H](O)[C@H](O)[C@H]2O)[C@H](O)[C@H]1O (stereo partly drawn) [Compound 21, hexahydrobenzyl o-aminobenzoate-N-lactoside] | > 15000 mg/kg | 95 mg/dL | 102 mg/dL | 16 mm Hg | 17 mm Hg | 44% | 4 mg/dL | 43 mg/dL | 96 mg/dL | 109 mg/dL | 19.4% | 7.2% | 20.7% | 84 mmHg | 40 s | 28% | 28% |
| O=C(OCc1ccccc1)c1cccc(NC2O[C@H](CO)[C@@H](O[C@@H]3O[C@H](CO)[C@H](O)[C@H](O)[C@H]3O)[C@H](O)[C@H]2O)c1 (stereo partly drawn) [Compound 12, benzyl m-aminobenzoate-N-lactoside] | 11500 mg/kg | 52 mg/dL | 95 mg/dL | 16 mm Hg | 18 mm Hg | 37% | 7 mg/dL | 48 mg/dL | 121 mg/dL | 124 mg/dL | 18.7% | 8.4% | 10.7% | 90 mmHg | 42 s | 33% | 17% |
| O=C(Oc1ccccc1)c1cccc(NC2O[C@H](CO)[C@@H](O)[C@H](O)[C@@H]2O)c1 (stereo partly drawn) [Compound 7, phenyl m-aminobenzoate-N-D-mannoside] | 14800 mg/kg | 144 mg/dL | 159 mg/dL | 24 mm Hg | 26 mm Hg | 49% | -2 mg/dL | 62 mg/dL | 141 mg/dL | 150 mg/dL | 5.9% | 25.3% | 7.5% | 95 mmHg | 44 s | 46% | 31% |
